Calls of active or inactive are those of the source.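 How the source made its calls: active means IC50 of 10 µM or lower; inactive means IC50 above 10 µM.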
test system: T. brucei BSF 427 growth, AlamarBlue, 48 h; assay: growth inhibition of T. brucei bloodstream parasites, dose response, counter-screen for T. brucei MetRS inhibitor project, absorbance, assay provider, round 3 (AID 1053204)

Q: With O=C(Cn1cc(C(=O)C(=O)NCc2ccccc2)c2ccccc21)Nc1cc(Oc2ccccc2)cc(C(F)(F)F)c1 as the molecule, how does the IC50 read?
A: 916 nM

Q: How did the IC50 turn out when CCN(CC)C(=O)C(=O)c1cn(CC(=O)Nc2cc(Oc3ccccc3OC)cc(C(F)(F)F)c2)c2ccccc12 was run?
A: 952 nM

Q: For O=C(Cc1ccc(Nc2nc3ccc(Br)cc3[nH]2)cc1)NCCc1cccs1, which IC50 is on record?
A: 8910 nM

Q: For CCN(CC)C(=O)C(=O)c1cn(CC(=O)Nc2cc(Oc3ccc(F)cc3)cc(C(F)(F)F)c2)c2ccccc12, which IC50 is on record?
A: 1420 nM

Q: Which IC50 does the source give for CCN(CC)C(=O)C(=O)c1cn(CC(=O)Nc2cc(Oc3ccccc3F)cc(C(F)(F)F)c2)c2ccccc12 here?
A: 1630 nM

Q: Which IC50 does the source give for CCN(CC)C(=O)C(=O)c1cn(CCNc2cccc(C(F)(F)F)c2)c2ccccc12 here?
A: 5500 nM

Q: With CCN(CC)C(=O)Cc1cn(CC(=O)Nc2cccc(C(F)(F)F)c2)c2ccccc12 as the molecule, how does the IC50 read?
A: > 10000 nM (inactive)

Q: With CCN(CC)C(=O)C(=O)c1cn(CC(=O)Nc2cc(Oc3ccc(OC)cc3)cc(C(F)(F)F)c2)c2ccccc12 as the molecule, how does the IC50 read?
A: 830 nM

Q: Which IC50 does the source give for Nc1c(Cl)ncnc1Nc1ccc(C(=O)O)cc1 here?
A: > 10000 nM (inactive)

Q: For CCN(CC)C(=O)C(=O)c1cn(CCNc2cc(Oc3ccccc3)cc(C(F)(F)F)c2)c2ccccc12, which IC50 is on record?
A: 4080 nM

Reference: PubChem BioAssay AID1053204 (The Scripps Research Institute Molecular Screening Center, 2014)
